# Experiments:
# [1] = Half-life in human liver microsomes (HLM); type: in vitro ADME; conditions: 1 μM compound, 0.78 mg/mL HLM, 37° C., NADPH; for half-life at 1 μM: human, human liver microsomes (HLM, HL101), pH 7.4
# Description: Test compounds (1 μM) were incubated with 3.3 mM MgCl2 and 0.78 mg/mL HLM (HL101) in 100 mM potassium phosphate buffer (pH 7.4) at 37° C. on the 96-deep well plate. The reaction mixture was split into two groups, a non-P450 and a P450 group. NADPH was only added to the reaction mixture of the P450 group. An aliquot of samples of P450 group was collected at 0, 10, 30, and 60 min time point, where 0 min time point indicated the time when NADPH was added into the reaction mixture of P450 group. An aliquot of samples of non-P450 group was collected at −10 and 65 min time point. Collected aliquots were extracted with acetonitrile solution containing an internal standard. The precipitated protein was spun down in centrifuge (2000 rpm, 15 min). The compound concentration in supernatant was measured by LC/MS/MS system.
# The half-life value was obtained by plotting the natural logarithm of the peak area ratio of compounds/internal standard versus time. The slope of the line of best fit through the points yields the rate of metabolism (k). This was converted to a half-life value using following equations:
# Exemplary compounds of the invention were tested (1 μM), and were incubated with 3.3 mM MgCl2 and 0.78 mg/mL HLM (HL101) in 100 mM potassium phosphate buffer (pH 7.4) at 37° C. on the 96-deep well plate. The reaction mixture was split into two groups, a non-P450 and a P450 group. NADPH was only added to the reaction mixture of the P450 group. An aliquot of samples of the P450 group was collected at 0, 10, 30, and 60 minute time points, where the 0 minute time point indicated the time when NADPH was added into the reaction mixture of the P450 group. An aliquot of samples of the non-P450 group was collected at −10 and 65 minute time points. Collected aliquots were extracted with an acetonitrile solution containing an internal standard. The precipitated protein was spun down in a centrifuge (2000 rpm, 15 rain). The compound concentration in supernatant was measured by LC/MS/MS system. The half-life value (T1/2) was obtained by plotting the natural logarithm of the peak area ratio of compounds/internal standard versus time. The slope of the line of best fit through the points yields the rate of metabolism (k). This was converted to a half-life value using following equations: Half-life=ln 2/k.
# VR1 = VR1 (Homo sapiens, UniProt Q8NER1); assay: Calcium uptake assay, low pH (proton) stimulus; type: cell-based; parameters: expressed in transfected cells; host or cells: T-REx HEK 293 (Invitrogen), pcDNA5/TO vector; conditions: 0.3 μM compound, low pH agonist, HEK 293 cells expressing hVR1; for inhibition at 0.3 µM: HEK293, read-out: Low pH % Inhib. @ 0.3 μM
# VR1, sequence (Q8NER1 whole entry): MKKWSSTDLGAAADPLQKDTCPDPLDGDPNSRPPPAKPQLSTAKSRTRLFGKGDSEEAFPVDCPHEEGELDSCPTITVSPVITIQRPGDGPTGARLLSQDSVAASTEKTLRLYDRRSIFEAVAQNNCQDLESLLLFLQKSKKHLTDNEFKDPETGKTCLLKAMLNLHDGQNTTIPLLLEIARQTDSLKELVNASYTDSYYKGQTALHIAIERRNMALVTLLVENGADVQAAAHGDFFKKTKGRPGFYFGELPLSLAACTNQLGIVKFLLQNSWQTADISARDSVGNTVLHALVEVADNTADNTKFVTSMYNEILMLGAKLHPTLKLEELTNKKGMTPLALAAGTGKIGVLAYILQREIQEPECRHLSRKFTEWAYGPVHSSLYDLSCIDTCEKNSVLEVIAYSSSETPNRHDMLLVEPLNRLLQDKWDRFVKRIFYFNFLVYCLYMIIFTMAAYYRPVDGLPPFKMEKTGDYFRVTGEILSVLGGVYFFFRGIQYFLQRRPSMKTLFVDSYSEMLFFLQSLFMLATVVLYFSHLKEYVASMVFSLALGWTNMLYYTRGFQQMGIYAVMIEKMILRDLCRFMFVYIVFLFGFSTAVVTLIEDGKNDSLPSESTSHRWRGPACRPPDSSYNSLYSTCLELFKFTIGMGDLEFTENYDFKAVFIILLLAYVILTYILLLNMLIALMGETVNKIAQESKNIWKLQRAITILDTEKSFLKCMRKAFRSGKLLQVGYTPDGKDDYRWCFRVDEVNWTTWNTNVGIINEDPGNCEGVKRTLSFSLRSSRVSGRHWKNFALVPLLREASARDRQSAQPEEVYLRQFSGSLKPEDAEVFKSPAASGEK
SMILES,inhibition at 0.3 µM (VR1) [%],other results
O=C(Nc1ccc2c(c1)OCCN2)c1ccc(/C=C/C(F)(F)F)cc1 [Compound 63],,Half Life [1]: 24 min
O=C(Nc1ccc2c(c1)OC[C@@H](CO)O2)c1ccc(C#CC2CC2)cc1 [Compound 104],91,half-life at 1 μM [1]: 16.8 min
O=C(Nc1ccc2c(c1)OCCN2)c1ccc(C#CC2CC2)c(OCC2CC2)c1 [Compound 94],85,half-life at 1 μM [1]: 28.8 min
O=C(Nc1ccc2c(c1)OCC(CO)N2)c1ccc(C#CC2CCCC2)cc1F (centres unmarked) [Compound 126],96,half-life at 1 μM [1]: 112 min
Cc1cc(C#CC(C)(C)C)ccc1C(=O)Nc1cnc2ccccc2c1 [Compound 181],102,half-life at 1 μM [1]: 61.2 min
O=C(Nc1ccc2c(c1)OCC(CO)O2)c1ccc(C#CC2CCCC2)cc1 (centres unmarked) [Compound 112],88,half-life at 1 μM [1]: 48 min
CC(C)(C)C#Cc1ncc(C(=O)Nc2ccc3c(c2)OCCN3)cn1 [Compound 95],102,half-life at 1 μM [1]: 18 min
O=C(Nc1cnc2ccccc2c1)c1ccc(/C=C/C(F)(F)F)cc1 [Compound 36],54,half-life at 1 μM [1]: 103 min
CC(C)(C)C#Cc1ccc(C(=O)Nc2ccc3c(c2)OCCO3)cn1 [Compound 22],106,half-life at 1 μM [1]: 70.8 min
CC(C)(C)C#Cc1ccc(C(=O)Nc2cccc3cnccc23)cc1 [Compound 31],108,half-life at 1 μM [1]: 24 min
O=C(Nc1ccc2c(c1)OCCO2)c1ccc(/C=C/C(F)(F)F)cc1 [Compound 34],97,half-life at 1 μM [1]: 69 min
C/C(=C\c1ccc(C(=O)Nc2cccc3cnccc23)cc1)C(F)(F)F [Compound 89],92,half-life at 1 μM [1]: 31.8 min
O=C(Nc1cccc2cnccc12)c1ccc(/C=C/C(F)(F)F)cc1F [Compound 160],96,half-life at 1 μM [1]: 34.8 min
CC(C)(C)C#Cc1ccc(C(=O)Nc2cccc3cnccc23)cc1OCCN1CCOCC1 [Compound 60],,Half Life [1]: 21 min
CC(C)(C)/C=C/c1ccc(C(=O)Nc2ccc3c(c2)OCCO3)cc1 [Compound 1],83,
O=C(Nc1ccc2c(c1)S(=O)(=O)C=C2)c1ccc(/C=C/C(F)(F)F)cc1 [Compound 92],71,
Cc1cc(C#CC2CC2)ccc1C(=O)Nc1ccc2c(c1)OCC(CO)O2 (centres unmarked) [Compound 151],108,
O=C(Nc1cc2c(cc1Cl)NCCO2)c1ccc(/C=C/C(F)(F)F)cc1 [Compound 136],50,
CC(C)/C=C/c1ccc(C(=O)Nc2ccc3[nH]ccc3c2)cc1 [Compound 9],37,

SMILES,inhibition at 0.3 µM (VR1) [%],other results
Cc1cc(C(=O)Nc2cccc3cnccc23)ccc1C#CC(F)(F)F [Compound 75],102,
CN1C(=O)COc2ccc(NC(=O)c3ccc(/C=C/C(F)(F)F)cc3)cc21 [Compound 84],45,
O=C(Nc1ccc2c(c1)OCCO2)c1ccc(/C=C/C(F)(F)F)cc1F [Compound 142],70,
CN1C(=O)C(C)(C)Oc2ccc(NC(=O)c3ccc(/C=C/C(F)(F)F)cc3)cc21 [Compound 78],32,
Cn1ccc2cc(NC(=O)c3ccc(/C=C/C(C)(C)C)cc3)ccc21 [Compound 42],98,
Cc1nc2cc(NC(=O)c3ccc(C#CC(C)(C)C)cc3)ccc2s1 [Compound 56],104,
CC1=Cc2c(cccc2NC(=O)c2ccc(/C=C/C(F)(F)F)cc2)NN1 [Compound 113],9,
COc1cc(/C=C\C(F)(F)F)ccc1C(=O)Nc1ccc2c(c1)OCCN2 [Compound 120],19,
CC(C)(C)C#Cc1cc(F)c(C(=O)Nc2ccc3c(c2)OCC(CO)N3)c(F)c1 (centres unmarked) [Compound 168],104,
CC(C)(C)C#Cc1cc(F)c(C(=O)Nc2cnc3ccccc3c2)c(F)c1 [Compound 179],100,
CC(C)(C)C#Cc1ccc(C(=O)Nc2ccc3c(c2)N(CCN2CCOCC2)CC3(C)C)cc1 [Compound 67],8,
Cc1cc(/C=C/C(F)(F)F)ccc1C(=O)Nc1ccc2c(c1)OCC(O)CN2 (centres unmarked) [Compound 189],87,
Cc1cc2c(NC(=O)c3ccc(/C=C/C(F)(F)F)cc3C)cccc2cn1 [Compound 196],86,
Cc1cc(/C=C/C(F)(F)F)ccc1C(=O)Nc1ccc2cccnc2c1 [Compound 224],82,
CC(C)(C)C#Cc1ccc(C(=O)Nc2cnc3ccccc3c2)c(F)c1 [Compound 174],97,
Cc1cc(/C=C/C(F)(F)F)ccc1C(=O)Nc1ccc2c(c1)OCCO2 [Compound 190],87,
CC(C)(C)C#Cc1ccc(C(=O)Nc2ccc3c(c2)OC(CO)CO3)cc1 (centres unmarked) [Compound 82],76,
CC(=O)N1CC(C)(C)c2ccc(NC(=O)c3ccc(C#CC(C)(C)C)cc3)cc21 [Compound 68],140,
Cc1nc2cc(NC(=O)c3ccc(/C=C/C(F)(F)F)cc3)ccc2s1 [Compound 53],81,

SMILES,inhibition at 0.3 µM (VR1) [%],other results
CS(=O)(=O)OCC1COc2cc(NC(=O)c3ccc(C#CC4CCCC4)cc3)ccc2O1 (centres unmarked) [Compound 116],,Low pH % Inhib. @ 0.3 μM (VR1): 10%
CC(C)(C)C#Cc1ccc(C(=O)Nc2ccc3c(c2)OCCN3)c(Cl)c1 [Compound 146],93,
CN1CCCc2ccc(NC(=O)c3ccc(C#CC(C)(C)C)nc3)cc21 [Compound 85],34,
Cn1ccc2cc(NC(=O)c3ccc(C#CC(C)(C)C)cc3)ccc21 [Compound 33],105,
Cc1cc(C#CC(C)(C)C)ccc1C(=O)Nc1ccc2[nH]c(=O)oc2c1 [Compound 217],59,
Cc1nc2cc(NC(=O)c3ccc(C#CC(C)(C)C)cc3C)ccc2[nH]1 [Compound 215],86,
COc1cc(/C=C\C(F)(F)F)ccc1C(=O)Nc1ccc2c(c1)OCCO2 [Compound 121],19,
Cc1cc(/C=C/C(F)(F)F)ccc1C(=O)Nc1ccc2c(c1)OCC(CO)O2 (centres unmarked) [Compound 185],92,
CN1CCOc2ccc(NC(=O)c3ccc(/C=C/C(F)(F)F)cc3)cc21 [Compound 88],48,
O=C(Nc1ccc2c(c1)OCCN2)c1ccc(/C=C/C(F)(F)F)cc1Cl [Compound 148],104,
C/C(=C/C(C)(C)C)c1ccc(C(=O)Nc2ccc3[nH]ccc3c2)cc1 [Compound 16],21,
Cc1cc(C#CC(C)(C)C)ccc1C(=O)Nc1cnc2cc(CO)ccc2c1 [Compound 216],31,
Cn1ccc2cc(NC(=O)c3ccc(/C=C/C(F)(F)F)cc3)ccc21 [Compound 37],17,
O=C(Nc1cnc2ccccc2c1)c1ccc(/C=C/C(F)(F)F)cc1F [Compound 178],9,
CC(C)(C)C#Cc1ccc(C(=O)Nc2ccc3c(c2)OC[C@@H](CO)N3)c(Cl)c1 [Compound 183],98,
O=C(Nc1cnc2ccccc2c1)c1ccc(C#CC(F)(F)F)cc1 [Compound 46],,half-life at 1 μM [1]: 1.2 min
CC(C)(C)C#Cc1ccc(C(=O)Nc2cccc3cnccc23)c(Cl)c1 [Compound 161],95,
O=C(Nc1ccc2c(c1)OC(CO)CO2)c1ccc(C#CC2CC2)cc1 (centres unmarked) [Compound 86],83,

# Reference: patent publication US20080300243A1, “Amide Derivatives as Ion-Channel Ligands and Pharmaceutical Compositions and Methods of Using the Same” (priority 2005, published 2008)
